Measured values published in ChEMBL document CHEMBL1201862, “PubChem BioAssay data set” (2004).
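96-well plates; 48 h exposure; 5 concentrations. Endpoints by linear interpolation between flanking doses. Not reached: highest tested concentration assigned. GI50 marks 50% less growth.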 Calls of active or inactive are those of the source. No stated cut-off is given here; in the data, active = GI50 up to about 1.1 µM and inactive = higher.

Assays:
Assay in all cases: inhibition of tumour cell growth, NCI panel, 48 h
RPMI-8226 = system: RPMI-8226
T47D = system: T47D
SK-MEL-28 = system: SK-MEL-28
EKVX = system: EKVX
RXF 393 = system: RXF 393
BT-549 = system: BT-549
LOX IMVI = system: LOX IMVI
HT-29 = system: HT-29
COLO 205 = system: COLO 205
SW-620 = system: SW-620
SF-268 = system: SF-268
A498 = system: A498
Hs-578T = system: Hs-578T
ACHN = system: ACHN
OVCAR-4 = system: OVCAR-4
OVCAR-3 = system: OVCAR-3
786-0 = system: 786-0
MDA-MB-435 = system: MDA-MB-435
NCI-H522 = system: NCI-H522

Row | Structure (SMILES) | GI50 (RPMI-8226) | GI50 (T47D) | GI50 (SK-MEL-28) | GI50 (EKVX) | GI50 (RXF 393) | GI50 (BT-549) | GI50 (LOX IMVI) | GI50 (HT-29) | GI50 (COLO 205) | GI50 (SW-620) | GI50 (SF-268) | GI50 (A498) | GI50 (Hs-578T) | GI50 (ACHN) | GI50 (OVCAR-4) | GI50 (OVCAR-3) | GI50 (786-0) | GI50 (MDA-MB-435) | GI50 (NCI-H522)
1 | Cc1cc2oc(=N)c(C#N)c(C)c2cc1C | 42.7 µM (inactive) | 40.6 µM (inactive) | > 100 µM (inactive) | 30.3 µM (inactive) | 24.3 µM (inactive) | 39.4 µM (inactive) | 90.2 µM (inactive) | 63 µM (inactive) | 48.1 µM (inactive) | 67.6 µM (inactive) | 44 µM (inactive) | > 100 µM (inactive) | 26.3 µM (inactive) | 38.5 µM (inactive) | 56.2 µM (inactive) | 70.1 µM (inactive) | 96.4 µM (inactive) | 51.5 µM (inactive) | 
2 | NC(=O)c1cnc2sc3ccccc3n2c1=O | > 100 µM (inactive) | > 100 µM (inactive) | > 100 µM (inactive) | 21.9 µM (inactive) | > 100 µM (inactive) | > 100 µM (inactive) | > 100 µM (inactive) | > 100 µM (inactive) | > 100 µM (inactive) | > 100 µM (inactive) | > 100 µM (inactive) |  | 26.4 µM (inactive) | > 100 µM (inactive) | > 100 µM (inactive) | > 100 µM (inactive) | > 100 µM (inactive) |  | 74 µM (inactive)
3 | O=C(O)/C=N/NC(=S)NC1CCCCC1 | > 100 µM (inactive) | > 100 µM (inactive) | > 100 µM (inactive) | > 100 µM (inactive) |  | > 100 µM (inactive) | > 100 µM (inactive) | > 100 µM (inactive) | > 100 µM (inactive) | > 100 µM (inactive) |  | > 100 µM (inactive) | > 100 µM (inactive) | > 100 µM (inactive) | > 100 µM (inactive) | > 100 µM (inactive) | > 100 µM (inactive) | > 100 µM (inactive) | > 100 µM (inactive)
4 | Cc1cnc2c(c1)C(=O)N(c1ccc(Oc3ccccc3)cc1)S2(=O)=O | > 100 µM (inactive) | > 100 µM (inactive) | > 100 µM (inactive) | > 100 µM (inactive) |  | > 100 µM (inactive) | > 100 µM (inactive) | > 100 µM (inactive) | > 100 µM (inactive) | > 100 µM (inactive) | > 100 µM (inactive) |  | > 100 µM (inactive) | > 100 µM (inactive) | 83.8 µM (inactive) | > 100 µM (inactive) | > 100 µM (inactive) | > 100 µM (inactive) | 57.7 µM (inactive)
5 | COC(=O)/C=C/c1cc2c(cc1-c1c(C(=O)O)cc(OC)c(OC)c1OC)OCO2 | > 10 µM (inactive) | > 10 µM (inactive) | > 10 µM (inactive) |  |  | > 10 µM (inactive) | > 10 µM (inactive) | > 10 µM (inactive) | > 10 µM (inactive) | > 10 µM (inactive) | > 10 µM (inactive) |  | > 10 µM (inactive) | > 10 µM (inactive) | > 10 µM (inactive) | > 10 µM (inactive) | > 10 µM (inactive) | > 10 µM (inactive) | > 10 µM (inactive)
6 | Cc1cc(C)c2cc(N)c(Cl)nc2n1 | > 100 µM (inactive) | > 100 µM (inactive) |  | > 100 µM (inactive) | > 100 µM (inactive) | > 100 µM (inactive) |  | 63.5 µM (inactive) | > 100 µM (inactive) | > 100 µM (inactive) | > 100 µM (inactive) |  | > 100 µM (inactive) | > 100 µM (inactive) |  |  | > 100 µM (inactive) | > 100 µM (inactive) | 18.7 µM (inactive)
7 | CC(C)(C)[Si](C)(C)OCCCCC1CC2(S(=O)(=O)C3=CC=C=C=C3)ON1CC2S(=O)(=O)c1ccccc1 (centres undefined) | > 100 µM (inactive) | > 100 µM (inactive) | > 100 µM (inactive) | > 100 µM (inactive) | > 100 µM (inactive) | > 100 µM (inactive) |  | > 100 µM (inactive) | > 100 µM (inactive) | > 100 µM (inactive) | > 100 µM (inactive) | > 100 µM (inactive) | > 100 µM (inactive) | > 100 µM (inactive) | > 100 µM (inactive) | > 100 µM (inactive) | > 100 µM (inactive) | > 100 µM (inactive) | 
8 | CC(C)CCCC(=O)CCCCCCC(=O)CCN(O)C(=O)C(N)CO (centres undefined) | 21.7 µM (inactive) | 13.8 µM (inactive) | 19.1 µM (inactive) | 10.6 µM (inactive) | 11 µM (inactive) | 14.7 µM (inactive) | 12.2 µM (inactive) | 18.7 µM (inactive) | 23.7 µM (inactive) | 30.3 µM (inactive) | 26.2 µM (inactive) | 16.3 µM (inactive) | 28.5 µM (inactive) | 16.1 µM (inactive) |  | 17.3 µM (inactive) | 16 µM (inactive) | 25.8 µM (inactive) | 
9 | COC1CC(OC2C(C)OC(OC3C(C)OC(OC4C(C)OC(O[C@H]5CC[C@@]6(C)C(=CC[C@]7(O)[C@@H]6C[C@@H](OC(=O)/C=C/c6ccccc6)[C@@]6(C)[C@]7(O)CC[C@@]6(O)C(C)=O)C5)CC4OC)CC3OC)CC2OC)OC(C)C1O (some centres undefined) | 5.98 µM (inactive) | > 12.5 µM (inactive) | > 12.5 µM (inactive) | > 12.5 µM (inactive) |  | > 12.5 µM (inactive) | > 12.5 µM (inactive) | > 12.5 µM (inactive) | > 12.5 µM (inactive) | > 12.5 µM (inactive) | > 12.5 µM (inactive) |  | > 12.5 µM (inactive) | > 12.5 µM (inactive) | > 12.5 µM (inactive) | 11 µM (inactive) | > 12.5 µM (inactive) | > 12.5 µM (inactive) | > 12.5 µM (inactive)
10 | NC(=O)[N+](=CC(=S)Nc1ccccc1Cl)C(N)=O | > 100 µM (inactive) | > 100 µM (inactive) |  | > 100 µM (inactive) | > 100 µM (inactive) | 86.9 µM (inactive) | > 100 µM (inactive) | > 100 µM (inactive) | > 100 µM (inactive) | > 100 µM (inactive) | > 100 µM (inactive) |  | > 100 µM (inactive) | > 100 µM (inactive) | > 100 µM (inactive) | > 100 µM (inactive) | > 100 µM (inactive) | > 100 µM (inactive) | > 100 µM (inactive)
11 | CCOC(=O)CC/C(C)=N\n1c(Cc2ccc(Cl)cc2)n[nH]c1=O | > 100 µM (inactive) | > 100 µM (inactive) | > 100 µM (inactive) |  | > 100 µM (inactive) | > 100 µM (inactive) | > 100 µM (inactive) | > 100 µM (inactive) |  | > 100 µM (inactive) | > 100 µM (inactive) |  | > 100 µM (inactive) | > 100 µM (inactive) |  | > 100 µM (inactive) | > 100 µM (inactive) | > 100 µM (inactive) | > 100 µM (inactive)
12 | Cc1cc(=O)nc(S(=O)(=O)NC(=O)Nc2cccc(Cl)c2)[nH]1 |  | > 88.5 µM (inactive) | > 100 µM (inactive) | > 100 µM (inactive) | > 71.4 µM (inactive) | > 100 µM (inactive) | > 100 µM (inactive) | > 100 µM (inactive) | > 100 µM (inactive) | > 100 µM (inactive) | > 100 µM (inactive) | > 100 µM (inactive) | > 100 µM (inactive) | > 100 µM (inactive) |  | 47.1 µM (inactive) | > 100 µM (inactive) | > 33.5 µM (inactive) | > 100 µM (inactive)
13 | OCCNc1nc2c(N3CCCC3)nc(N3CCNCC3)nc2nc1NCc1ccccc1 | 16.7 µM (inactive) | 12.5 µM (inactive) | 17.5 µM (inactive) | 13.6 µM (inactive) | 11.3 µM (inactive) | 16.4 µM (inactive) | 14.7 µM (inactive) | 8.15 µM (inactive) | 11.7 µM (inactive) | 19.1 µM (inactive) | 16.9 µM (inactive) |  | 20.3 µM (inactive) | 15.5 µM (inactive) | 17.3 µM (inactive) | 4.92 µM (inactive) | 14.8 µM (inactive) | 12.4 µM (inactive) | 12.7 µM (inactive)
14 | CCOC(=O)c1ccc(Nc2cnc3ccc(C(F)(F)F)cc3n2)cc1 | 27.2 µM (inactive) | 18.7 µM (inactive) | 15.8 µM (inactive) | 24.6 µM (inactive) | 8.18 µM (inactive) | 15.8 µM (inactive) | 15.8 µM (inactive) | 11.9 µM (inactive) | 15.3 µM (inactive) | 15.2 µM (inactive) | 12.6 µM (inactive) | 16.6 µM (inactive) | 17.4 µM (inactive) | 15.2 µM (inactive) | 11.6 µM (inactive) | 19.5 µM (inactive) | 13.9 µM (inactive) | 21.5 µM (inactive) | 
15 | CC(=O)O[C@H]1CCn2c3c(c(C)c21)C(=O)C(N1CC1)=C(C)C3=O | > 10 µM (inactive) | > 10 µM (inactive) |  | > 10 µM (inactive) |  | > 10 µM (inactive) | > 10 µM (inactive) | 2.84 µM (inactive) | 6.12 µM (inactive) | > 10 µM (inactive) | > 10 µM (inactive) |  | > 10 µM (inactive) | > 10 µM (inactive) | > 10 µM (inactive) | > 10 µM (inactive) | > 10 µM (inactive) | > 10 µM (inactive) | > 10 µM (inactive)
16 | C/C(=N\N=C(/S)N1CC2CCC(CC2)C1)c1ccncn1 | < 0.01 µM (active) | < 0.01 µM (active) | 0.863 µM (active) | < 0.01 µM (active) | 0.794 µM (active) | 0.0512 µM (active) | < 0.01 µM (active) | < 0.01 µM (active) | < 0.01 µM (active) | < 0.01 µM (active) | 0.133 µM (active) | 0.291 µM (active) | 0.914 µM (active) | < 0.01 µM (active) | 0.741 µM (active) | < 0.01 µM (active) | 0.0103 µM (active) | 0.0703 µM (active) | 
